# Test results taken from the supplement of paper PMC10307832.
# Columns and labels:
# Assay in all cases: relative viability (nuclei count vs DMSO), 5 days (fraction); higher = more cells survive
# NCI-H650 = system: NCI-H650
# Outline: (§1)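 Relative viability is defined as nuclei in treated wells over nuclei in vehicle wells. Duplicate plates were run and medians reported. Lung cancer cell lines in 1536-well plates were dosed by pin tool one day after seeding, with one drug or with a fixed anchor-drug dose plus five library-drug doses (not always all listed) in √10 steps, and nuclei were counted after 5 days.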
# COR-L 105 = system: COR-L 105
# Outline: as §1
# NCI-H2126 = system: NCI-H2126
# Outline: as §1
# NCI-H2347 = system: NCI-H2347
# Outline: as §1
# NCI-H661 = system: NCI-H661
# Outline: as §1
# NCI-H520 = system: NCI-H520
# Outline: as §1
# NCI-H2087 = system: NCI-H2087
# Outline: as §1
# HCC-78 = system: HCC-78
# Outline: as §1
# RERF-LC-KJ = system: RERF-LC-KJ
# Outline: as §1
# NCI-H1915 = system: NCI-H1915
# Outline: as §1
# 201T = system: 201T
# Outline: as §1
# NCI-H23 = system: NCI-H23
# Outline: as §1
# PC-14 = system: PC-14
# Outline: as §1
# LCLC-97TM1 = system: LCLC-97TM1
# Outline: as §1
# NCI-H1666 = system: NCI-H1666
# Outline: as §1
# H3255 = system: H3255
# Outline: as §1
# EPLC-272H = system: EPLC-272H
# Outline: as §1
# NCI-H647 = system: NCI-H647
# Outline: as §1
# NCI-H2405 = system: NCI-H2405
# Outline: as §1
# LC-2-ad = system: LC-2-ad
# Outline: as §1
# HCC-827 = system: HCC-827
# Outline: as §1
compound,measurement,setting,value
COc1cc2nccc(Oc3ccc(NC(=O)Nc4cc(C)on4)c(Cl)c3)c2cc1OC [Tivozanib] + CS(=O)(=O)CCNCc1ccc(-c2ccc3ncnc(Nc4ccc(OCc5cccc(F)c5)c(Cl)c4)c3c2)o1 [Lapatinib] (partner 2 µM),relative viability,NCI-H650; first compound 0.005 µM,0.759
same,relative viability,NCI-H650; first compound 0.01581 µM,0.807
same,relative viability,NCI-H650; first compound 0.05 µM,0.844
same,relative viability,NCI-H650; first compound 0.1581 µM,0.415
same,relative viability,NCI-H650; first compound 0.5 µM,0.535
same,relative viability,COR-L 105; first compound 0.01581 µM,0.317
same,relative viability,COR-L 105; first compound 0.05 µM,0.368
same,relative viability,COR-L 105; first compound 0.1581 µM,0.322
same,relative viability,COR-L 105; first compound 0.5 µM,0.339
same,relative viability,NCI-H2126; first compound 0.005 µM,0.686
same,relative viability,NCI-H2126; first compound 0.01581 µM,0.784
same,relative viability,NCI-H2126; first compound 0.05 µM,0.755
same,relative viability,NCI-H2126; first compound 0.1581 µM,0.559
same,relative viability,NCI-H2126; first compound 0.5 µM,0.774
same,relative viability,NCI-H2347; first compound 0.005 µM,0.881
same,relative viability,NCI-H2347; first compound 0.01581 µM,0.93
same,relative viability,NCI-H2347; first compound 0.05 µM,0.963
same,relative viability,NCI-H2347; first compound 0.1581 µM,1.11
same,relative viability,NCI-H2347; first compound 0.5 µM,0.907
same,relative viability,NCI-H661; first compound 0.005 µM,0.436
same,relative viability,NCI-H661; first compound 0.01581 µM,0.495
same,relative viability,NCI-H661; first compound 0.05 µM,0.46
same,relative viability,NCI-H661; first compound 0.1581 µM,0.496
same,relative viability,NCI-H661; first compound 0.5 µM,0.553
same,relative viability,NCI-H520; first compound 0.005 µM,0.763
same,relative viability,NCI-H520; first compound 0.01581 µM,0.912
same,relative viability,NCI-H520; first compound 0.05 µM,0.87
same,relative viability,NCI-H520; first compound 0.1581 µM,0.82
same,relative viability,NCI-H520; first compound 0.5 µM,0.757
same,relative viability,NCI-H2087; first compound 0.005 µM,1
same,relative viability,NCI-H2087; first compound 0.01581 µM,0.885
same,relative viability,NCI-H2087; first compound 0.05 µM,0.942
same,relative viability,NCI-H2087; first compound 0.1581 µM,1.2
same,relative viability,NCI-H2087; first compound 0.5 µM,0.859
same,relative viability,HCC-78; first compound 0.005 µM,0.683
same,relative viability,HCC-78; first compound 0.01581 µM,0.772
same,relative viability,HCC-78; first compound 0.05 µM,0.851
same,relative viability,HCC-78; first compound 0.1581 µM,1.58
same,relative viability,HCC-78; first compound 0.5 µM,0.455
same,relative viability,RERF-LC-KJ; first compound 0.005 µM,0.816
same,relative viability,RERF-LC-KJ; first compound 0.01581 µM,0.843
same,relative viability,RERF-LC-KJ; first compound 0.05 µM,0.902
same,relative viability,RERF-LC-KJ; first compound 0.1581 µM,0.819
same,relative viability,RERF-LC-KJ; first compound 0.5 µM,0.834
same,relative viability,NCI-H1915; first compound 0.005 µM,0.992
same,relative viability,NCI-H1915; first compound 0.01581 µM,0.928
same,relative viability,NCI-H1915; first compound 0.05 µM,0.946
same,relative viability,NCI-H1915; first compound 0.1581 µM,0.965
same,relative viability,NCI-H1915; first compound 0.5 µM,0.882
same,relative viability,201T; first compound 0.005 µM,1.04
same,relative viability,201T; first compound 0.01581 µM,1.06
same,relative viability,201T; first compound 0.05 µM,1.01
same,relative viability,201T; first compound 0.1581 µM,0.988
same,relative viability,201T; first compound 0.5 µM,1.07
same,relative viability,NCI-H23; first compound 0.005 µM,1.1
same,relative viability,NCI-H23; first compound 0.01581 µM,1.37
same,relative viability,NCI-H23; first compound 0.05 µM,1.09
same,relative viability,NCI-H23; first compound 0.1581 µM,0.858
same,relative viability,NCI-H23; first compound 0.5 µM,0.942
same,relative viability,PC-14; first compound 0.005 µM,0.245
same,relative viability,PC-14; first compound 0.01581 µM,0.325
same,relative viability,PC-14; first compound 0.05 µM,0.308
same,relative viability,PC-14; first compound 0.1581 µM,0.255
same,relative viability,PC-14; first compound 0.5 µM,0.332
same,relative viability,LCLC-97TM1; first compound 0.005 µM,0.948
same,relative viability,LCLC-97TM1; first compound 0.01581 µM,1.23
same,relative viability,LCLC-97TM1; first compound 0.1581 µM,0.807
same,relative viability,LCLC-97TM1; first compound 0.5 µM,0.821
same,relative viability,NCI-H1666; first compound 0.005 µM,0.561
same,relative viability,NCI-H1666; first compound 0.01581 µM,0.621
same,relative viability,NCI-H1666; first compound 0.05 µM,0.641
same,relative viability,NCI-H1666; first compound 0.1581 µM,0.607
same,relative viability,NCI-H1666; first compound 0.5 µM,0.84
same,relative viability,H3255; first compound 0.005 µM,0.247
same,relative viability,H3255; first compound 0.01581 µM,0.223
same,relative viability,H3255; first compound 0.05 µM,0.23
same,relative viability,H3255; first compound 0.1581 µM,0.232
same,relative viability,H3255; first compound 0.5 µM,0.211
same,relative viability,EPLC-272H; first compound 0.005 µM,0.854
same,relative viability,EPLC-272H; first compound 0.01581 µM,0.844
same,relative viability,EPLC-272H; first compound 0.05 µM,0.938
same,relative viability,EPLC-272H; first compound 0.1581 µM,0.806
same,relative viability,EPLC-272H; first compound 0.5 µM,0.671
same,relative viability,NCI-H647; first compound 0.005 µM,0.935
same,relative viability,NCI-H647; first compound 0.01581 µM,0.971
same,relative viability,NCI-H647; first compound 0.05 µM,0.98
same,relative viability,NCI-H647; first compound 0.1581 µM,0.866
same,relative viability,NCI-H647; first compound 0.5 µM,0.966
same,relative viability,NCI-H2405; first compound 0.005 µM,0.972
same,relative viability,NCI-H2405; first compound 0.01581 µM,1.28
same,relative viability,NCI-H2405; first compound 0.05 µM,1.1
same,relative viability,NCI-H2405; first compound 0.1581 µM,1.01
same,relative viability,NCI-H2405; first compound 0.5 µM,0.572
same,relative viability,LC-2-ad; first compound 0.005 µM,0.959
same,relative viability,LC-2-ad; first compound 0.01581 µM,0.944
same,relative viability,LC-2-ad; first compound 0.05 µM,0.856
same,relative viability,LC-2-ad; first compound 0.1581 µM,0.542
same,relative viability,LC-2-ad; first compound 0.5 µM,0.466
same,relative viability,HCC-827; first compound 0.005 µM,0.244
same,relative viability,HCC-827; first compound 0.01581 µM,0.181
same,relative viability,HCC-827; first compound 0.05 µM,0.204
same,relative viability,HCC-827; first compound 0.1581 µM,0.233
same,relative viability,HCC-827; first compound 0.5 µM,0.842
